The text below walks through data of patent publication US8377913B2, “Vitamin D receptor activators and methods of making” (AbbVie Inc., priority 2007, dated 2013).

pEC50, pIC50: −log10 of the molar value.

Series [1] has as its system 5/6 nephrectomized rats. Kind of series: Aortic Calcification in Uremic Rats. Type of series: in vivo, rat. The note with it: 5/6 NX rats, at <100 μg/kg, i.p. 3 times per week for 41 Days. The procedure: 5/6 nephrectomized rats: Male Sprague-Dawley, 5/6 NX rats (˜200 g) were obtained from Charles River. The nephrectomy was performed using a standard two-step surgical ablation procedure. Beginning approximately 2 weeks post-nephrectomy, rats were maintained on a hyperphosphatemia-inducing diet (0.9% phosphorus and 0.6% calcium) for the duration of the study to induce secondary hyperparathyroidism (SHPT). After four weeks on the special diet, rats received vehicle (5% ethanol/95% propylene glycol; 0.4 mL/kg; i.p.) or test agent 3 times per week for 41 Days. On Days 0, 13, and 41 blood was collected (24 hours post-dose).
To minimize bias induced by variance in the disease state, 5/6 NX rats were assessed after 4 weeks of high phosphorus diet (prior to treatment) and the following inclusion/exclusion criteria were applied to the rats for study: • Serum creatinine=0.8-2.0 mg/dL (sham controls=0.43±0.01 mg/dL; n=20) • Exclude: serum calcium≦8.5 mg/dL (sham controls=10.05±0.05 mg/dL; n=20) • Exclude: serum phosphorus>12 mg/dL (sham controls=7.09±0.12 mg/dL; n=20) • Exclude: iPTH<400 pg/mL (sham controls=430±33 pg/mL; n=20)
Measurement of PTH and serum mineral levels: Serum PTH was measured using a rat intact PTH ELISA kit (ALPCO/lmmutopics, Inc., Windham, N.H.). Serum calcium, phosphorus, creatinine and BUN concentrations were measured using an Abbott Aeroset® (Abbott, Abbott Park, Ill.). […]

For series [2], the system named is VDR (VDRE-luciferase-reporter construct). Nature of the series: VDRE Reporter Gene Assay in HEK cells with stable expression of VDR. The class given is cell-based. Particulars: Homo sapiens, HEK293, 24 hours. The procedure: Compound activity was also assessed by looking at a Vitamin D Response Element (VDRE) reporter gene assay, Human Embryonic Kidney cells (HEK cells) with a stable expression of VDR were cultured in 96-well plates at ˜4×10^5 cells/mL (100 μL/well) in DMEM medium containing 10% fetal calf serum. Cells were transfected with 0.2 μg per well of a VDRE-luciferase-reporter construct (from Y. Li, University of Chicago) and then treated with test agents at indicated concentrations for 24 hours. The luciferase activity was then measured following the manufacturer's instructions (Promega, Madison, Wis.).

For series [3], the system named is PAI-1 mRNA in human coronary artery smooth muscle cells (CASMC). Nature of the series: PAI-1 mRNA in CASMC. Type of series: cell-based. The note with it: Homo sapiens. The method, then: Primary culture of human coronary artery smooth muscle cells (CASMC) (commercially available from Cambrex, Walkersville, Md.) were grown in smooth muscle growth medium SmGM-2 (commercially available from Lonza Bioscience) containing 5.5 mM glucose, 5% FBS, 50 μg/ml gentamicin, 50 ng/ml amphotericin-B, 5 μg/ml insulin, 2 ng/ml human recombinant fibroblast growth factor (hFGF), and 0.5 ng/ml human recombinant epidermal growth factor (hEGF) at 37° C. in a humidified 5% CO2-95% air atmosphere. Cells were grown to >80% confluence and used within five passages.
Real-time reverse transcription-PCR was performed with a MyiQ Real-Time PCR Detection System (BioRad, Hercules, Calif.). Each sample has a final volume of 25 μl containing 100 ng of cDNA, […] each of the forward and reverse PCR primers and […] of the TaqMan™ probe for the gene of interest (Applied Biosystems, Foster City, Calif.). Temperature conditions consisted of a step of 5 minutes at 95° C., followed by 40 cycles of 60° C. for 1 minute and 95° C. for 15 seconds. Data was collected during each extension phase of the PCR reaction and analyzed with the software package (BioRad, Hercules, Calif.). Threshold cycles were determined for each gene. […]

For series [4], the system named is 5/6 NX uremic rats. Kind of series: Study 2: left ventricular hypertrophy (LVH) in 5/6 NX uremic rats. The class given is in vivo, rat. The note with it: 1, 10 and 100 μg/kg, 3×/wk for 6 wks. The procedure: Study 2: To determine if treatment with Example 1 (1, 10 & 100 μg/kg) reduces left ventricular hypertrophy (LVH) in 5/6 NX uremic rats.
Methods: Previous studies have shown that the 5/6 NX rat is hypertensive and presents with left ventricular hypertrophy. Therefore, 5/6 NX rats were received from Charles River at 2 weeks uremia and fed TD04151 (0.6% Ca and 0.9 % P) 4 weeks prior to study. 5/6 NX rats were treated with Example 1 (1, 10 & 100 μg/kg) or vehicle (95% PG/5% EtOH) 3×/week for six weeks. On Days 0, 13 and 41 blood was drawn (24 hours post-dose). At the end of the six week treatment period, rats were anesthetized with isoflurane and echocardiography was performed. Left ventricular mass was determined according to the American Society of Echocardiography recommendations using the cube method. After euthanasia, direct measurements of left ventricular weight were obtained. Note: Vehicle treated SHAM and 5/6 NX rats (3×/week for six weeks) from previous studies were included in this study for comparison purposes. All values are mean±SEM. Data was analyzed using ANOVA and where noted t-test. * Indicates p<0.05 compared to SHAM.

The test system of series [5] is Human promyelocytic leukemia (HL60) cells. Kind of series: HL-60 Differentiation. Type of series: cell-based. Particulars: HL-60, 96 h, four days incubation, NBT, absorbance 570 nm. The method, then: Human promyelocytic leukemia (HL60) cells were obtained from the American Type Culture Collection (ATCC Cat. # CCL-240, Manassas, Va.). Cells were maintained in RPMI 1640 medium (commercially available from Invitrogen, Carlsbad, Calif.) containing 10% fetal bovine serum (commercially available from Invitrogen, Carlsbad, Calif.) at 37° C. with 5% CO2. Cells were passaged weekly and were not allowed to become >90% confluent. For the assay, cells were plated at 5×10^5 cells per well in 200 uL media. Test compounds were diluted in media in concentrations between 10^−6-10^−10 M and then added to the appropriate wells. Cells were then incubated for four days at 37° C. in 5% CO2 atmosphere. After incubation, media was aspirated from each well and 75 uL of NBT solution (nitroblue tetrazolinium: 200 ng/mL PMA (phorbol 12-myrystate 13-acetate) and 2 mg/ml NBT (nitroblue tetrazolium) in distilled H2O) was added to each well followed by further incubation for 2 hours at 37° C. Following incubation, 150 uL lysis buffer (225 mL dimethylformamide, 67.5 g SDS). PMA stock solution (2 mg/ml in ethanol) was added to each well and the plate was allowed to sit at room temperature for 4 hours. HL-60 cell differentiation was assayed, Effect of each compound on cell growth was examined as a function of time; absorbance in each well was measured at 570 nm.

Take `C=C1[C@H](O)CC(=C/C=C2\CCC[C@]3(C)[C@@H]([C@H](C)COC(=O)C(C)(C)C)CC[C@@H]23)C[C@H]1O` [Example 1, (2S)-2-[(1R,3R,7E, 17β)-1,3-dihydroxy-2-methylene-9,10-secoestra-5,7-dien-17-yl]propyl pivalate]: the “effect on aortic calcification” value in series [1] is listed as “did not have an effect”. Besides, the pEC50 is 9.40 in series [2] and 8.72 in series [5]. Moreover, the negative-log IC50 (pIC50) in series [3] is 11.00. Moreover, the “exacerbation of LVH compared to controls” value in series [4] is given as “no exacerbation”.
